The results in this text go back to patent US20030216361A1, “Therapeutic compositions effective against gram positive bacteria” (priority 2000, published 2003).

Values joined by “and” are separate entries in the source; they are usually repeats but may differ in a detail not shown here. Identical values can stand only once.

This assay deals with ATCC 14154, mouse virulent Staphylococcus aureus. The assay is described as follows: Mouse model of topical Gram positive (Staphylococcus aureus) infection, infected suture. In kind it is in vivo. Particulars: Group 5 enrofloxacin (Baytril) 10 mg/kg SQ SID×7 days, mice. The method, then: The model, as described in J. Gisby and J. Bryant, Antimicrobial Agents and Chemotherapy, February 2000, Vol. 44, No. 2, p 255-260, was used.
Fifty HSD:ICR male mice weighing 12-14 grams were ordered and allowed to acclimate 7 days. Mice were allocated to 5 groups of 10 animals each.
Group 1: infected suture placed, no treatment
Group 2: topical GRPB, 12.5 mg/kg BID×7 days
Group 3: topical GRPB, 25 mg/kg BID×7 days
Group 4: clean suture, no treatment
Group 5: enrofloxacin (Baytril) 10 mg/kg SQ SID×7 days
ATCC 14154, mouse virulent Staphylococcus aureus was grown in BHI broth overnight (12 hours) at 38 degrees C. Forty-five minutes prior to surgery, silk suture (2-0 size, 1 cm lengths w/swaged-on blunt needle) was soaked in the broth for 30 minutes, excess liquid was then removed by blotting with filter paper.
Mice were anesthetized with a ketamine (40 mg/kg), midazolam (2 mg/kg), and butorphanol (0.1 mg/kg) as a single IP injection.
The skin on the back of the mouse was prepared for aseptic surgery by clipping, cleansing with iodine scrub, and rinsing with alcohol. Mice were kept warm during surgery on a recirculating hot water blanket.
The suture was placed just under the skin on the dorsum of the animal using sterile instruments. The suture was knotted in the subcutaneous tissue to keep it in place. A half-thickness skin wound was made over the suture using the side of an 18 gauge needle as a scalpel.
Mice were allowed to recover in the home cage.
GRPB-10-15A was reconstituted as directed, using a minimal amount of methanol followed by dilution to required volume in sterile physiologic saline.
Injections were given using insulin syringes with 30 gauge needles. Topical administration was placed over the wound site. The mice were first treated 4 hours after surgery and were treated once or twice daily thereafter.
After 7 days of treatment animals were euthanized with IP pentobarbital euthanasia solution. The suture lengths were removed and placed in 2 mls phosphate buffered saline. Serial dilutions were performed and results reported as actual counts (number of Staph colonies per suture).

Turning to `CCN1CCN(c2cc3c(cc2F)c(=O)c(C(=O)O)cn3C2CC2)CC1` [Baytril, enrofloxacin, reference compound], the “Total colonies (number of Staph colonies per suture), individual animals” value (animals 1-10, 10 mg/kg) was 18 colonies per suture and 30 colonies per suture and 24 colonies per suture and 100 colonies per suture and 0 colonies per suture (2×) and 74 colonies per suture and 13 colonies per suture and 740 colonies per suture and 22 colonies per suture. Besides, the “Total colonies (number of Staph colonies per suture), Ave.” value (average of 10 animals) is given as 102 colonies per suture.
